Test results: ChEMBL document CHEMBL3045888, “Synthesis and anti-hypertensive activity of novel sulphadimidine derivatives” (Med Chem Res, 2012)
Activity calls are given as the source filed them. The rule behind the calls is not given here.

Tested on: Rattus norvegicus
Test: Antihypertensive activity in hypertensive Rattus norvegicus Sprague-Dawley (rat) model assessed as reduction in mean systolic blood pressure level at 0.3 mg/kg, ip after 1 hr by non-invasive tail cuff method
Format: functional, organism-based
Parameters: dose 0.3 mg/kg
Conditions: Artery

| Structure (SMILES) | Activity |
| --- | --- |
| CCNc1ccc(/N=N\c2ccc(S(=O)(=O)Nc3nc(C)cc(C)n3)cc2)cc1 | Active |
| CCN(Cc1ccccc1)c1ccc(/N=N\c2ccc(S(=O)(=O)Nc3nc(C)cc(C)n3)cc2)cc1 | Active |
| CCN(CC)c1ccc(/N=N\c2ccc(S(=O)(=O)Nc3nc(C)cc(C)n3)cc2)cc1 | Active |
| COc1cc2nc(N3CCN(C(=O)c4ccco4)CC3)nc(N)c2cc1OC | Active |
| Cc1cc(C)nc(NS(=O)(=O)c2ccc(/N=N\c3ccc(N(C)C)cc3)cc2)n1 | Active |
